The values that follow come from US10654837B2, “Sulphamoylaryl derivatives and use thereof as medicaments for the treatment of liver fibrosis” (Janssen Pharmaceutica NV, priority 2017, dated 2020).

pIC50: −log10 of the molar value.

The target in the assay is T1, 5HTR2B (Homo sapiens, UniProt P41595).
T1 construct: host or cells: human Maverick/293 cells
T1 sequence (P41595 whole entry): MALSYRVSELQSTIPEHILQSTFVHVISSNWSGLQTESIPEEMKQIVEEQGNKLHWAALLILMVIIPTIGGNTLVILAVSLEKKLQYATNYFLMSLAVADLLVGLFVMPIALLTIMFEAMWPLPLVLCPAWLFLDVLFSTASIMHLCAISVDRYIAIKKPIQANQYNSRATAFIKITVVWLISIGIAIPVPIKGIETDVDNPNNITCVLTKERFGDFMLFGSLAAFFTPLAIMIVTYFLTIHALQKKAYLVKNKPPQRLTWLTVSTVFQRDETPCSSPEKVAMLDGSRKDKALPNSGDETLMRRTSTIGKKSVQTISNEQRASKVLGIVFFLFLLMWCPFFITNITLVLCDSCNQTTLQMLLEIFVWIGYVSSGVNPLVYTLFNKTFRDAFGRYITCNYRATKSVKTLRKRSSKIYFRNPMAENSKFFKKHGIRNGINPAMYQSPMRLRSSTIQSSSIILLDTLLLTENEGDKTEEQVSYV
The experiment in a line: 5HTR2B antagonist activity, calcium mobilization assay in human Maverick/293 cells (serotonin as agonist). Particulars: intracellular calcium, emission 525 nm, read-out: Ca assay IC50. The format is cell-based. In a few lines: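 Serum-starved (2 h) human Maverick/293 cells loaded with calcium dye for 50 min at 37 °C, then antagonist preincubated 15-30 min before serotonin challenge. Calcium fluorescence (ex 485/em 525 nm) recorded for 80 s; peak-based % inhibition fitted sigmoidally for IC50.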
Regarding `COc1ccc(S(=O)(=O)N[C@H]2CCOC2)cc1C(=O)Nc1ncccc1C` [Compound 133, (S)-2-Methoxy-N-(3-methylpyridin-2-yl)-5-(N-(tetrahydrofuran-3-yl)sulfamoyl) benzamide], the pIC50 was 6.39.
The result for `COc1ccc(S(=O)(=O)N[C@H]2CCOC2)cc1C(=O)Nc1cccc(F)c1OC` [Compound 134, (S)—N-(3-fluoro-2-methoxyphenyl)-2-methoxy-5-(N-(tetrahydrofuran-3-yl)sulfamoyl)benzamide] reads 9.30.
Next, `COc1cc(F)ccc1NC(=O)c1cc(S(=O)(=O)N[C@H]2CCOC2)ccc1OC` [Compound 135, (S)—N-(4-fluoro-2-methoxyphenyl)-2-methoxy-5-(N-(tetrahydrofuran-3-yl)sulfamoyl)benzamide]: 10.00; `CCOc1ccccc1NC(=O)c1cc(S(=O)(=O)N[C@H]2CCOC2)ccc1OC` [Compound 136, (S)—N-(2-ethoxyphenyl)-2-methoxy-5-(N-(tetrahydrofuran-3-yl)sulfamoyl) benzamide]: 9.40; `COc1ccc(S(=O)(=O)N[C@H]2C[C@H](O)C2)cc1C(=O)Nc1cc(C)ccc1Cl` [Compound 137a, N-(2-chloro-5-methylphenyl)-5-(N-((trans)-3-hydroxycyclobutyl)sulfamoyl)-2-methoxybenzamide]: 7.77.
With `COc1ccc(S(=O)(=O)N[C@H]2C[C@@H](O)C2)cc1C(=O)Nc1cc(C)ccc1Cl` [Compound 137b, N-(2-Chloro-5-methylphenyl)-5-(N-((cis)-3-hydroxycyclobutyl)sulfamoyl)-2-methoxybenzamide], the pIC50 was 7.41.
The result for `COc1ccc(S(=O)(=O)N[C@H]2C[C@H](O)C2)cc1C(=O)Nc1c(C)cccc1Cl` [Compound 138a, N-(2-Chloro-6-methylphenyl)-5-(N-((trans)-3-hydroxycyclobutyl)sulfamoyl)-2-methoxybenzamide] reads 6.80; that for `COc1ccc(S(=O)(=O)N[C@H]2C[C@@H](O)C2)cc1C(=O)Nc1c(C)cccc1Cl` [Compound 138b, N-(2-Chloro-6-methylphenyl)-5-(N-((cis)-3-hydroxycyclobutyl)sulfamoyl)-2-methoxybenzamide], 6.48.
As to `COc1ccc(S(=O)(=O)N[C@H]2C[C@H](O)C2)cc1C(=O)Nc1cccc(C)c1Cl` [Compound 140a, N-(2-Chloro-3-methylphenyl)-5-(N-((trans)-3-hydroxycyclobutyl)sulfamoyl)-2-methoxybenzamide], the pIC50 was 8.41.
Next, `COc1ccc(S(=O)(=O)N[C@H]2C[C@@H](O)C2)cc1C(=O)Nc1cccc(C)c1Cl` [Compound 140b, N-(2-Chloro-3-methylphenyl)-5-(N-((cis)-3-hydroxycyclobutyl)sulfamoyl)-2-methoxybenzamide]: 9.05; `COc1ccc(S(=O)(=O)N[C@H]2C[C@@H](O)C2)cc1C(=O)Nc1ccc(F)c(C)n1` [Compound 141]: 8.55; `COc1ccc(S(=O)(=O)N[C@H]2C[C@H](O)C2)cc1C(=O)Nc1ccc(F)c(C(F)F)c1` [Compound 142a, N-(3-(difluoromethyl)-4-fluorophenyl)-5-(N-((trans)-3-hydroxycyclobutyl)sulfamoyl)-2-methoxybenzamide]: 8.66.
Next, `COc1ccc(S(=O)(=O)N[C@H]2C[C@@H](O)C2)cc1C(=O)Nc1ccc(F)c(C(F)F)c1` [Compound 142b, N-(3-(difluoromethyl)-4-fluorophenyl)-5-(N-((cis)-3-hydroxycyclobutyl)sulfamoyl)-2-methoxybenzamide]: 8.96.
For `COc1ccc(S(=O)(=O)N[C@H]2C[C@H](O)C2)cc1C(=O)Nc1ccc(Cl)cc1F` [Compound 143a, N-(4-chloro-2-fluorophenyl)-5-(N-((trans)-3-hydroxycyclobutyl)sulfamoyl)-2-methoxybenzamide], the pIC50 is 9.15.
Regarding `COc1ccc(S(=O)(=O)N[C@H]2C[C@@H](O)C2)cc1C(=O)Nc1ccc(Cl)cc1F` [Compound 143b, N-(4-chloro-2-fluorophenyl)-5-(N-((cis)-3-hydroxycyclobutyl)sulfamoyl)-2-methoxybenzamide], the pIC50 was 8.23.
With `COc1ccc(S(=O)(=O)N[C@H]2C[C@H](O)C2)cc1C(=O)Nc1ccc(F)cc1Cl` [Compound 144a, N-(2-chloro-4-fluorophenyl)-5-(N-((trans)-3-hydroxycyclobutyl)sulfamoyl)-2-methoxybenzamide], the pIC50 is 9.30.
The result for `COc1ccc(S(=O)(=O)N[C@H]2C[C@@H](O)C2)cc1C(=O)Nc1ccc(F)cc1Cl` [Compound 144b, N-(2-chloro-4-fluorophenyl)-5-(N-((cis)-3-hydroxycyclobutyl)sulfamoyl)-2-methoxybenzamide] reads 9.52.
Turning to `COc1ccc(S(=O)(=O)N[C@H]2C[C@H](O)C2)cc1C(=O)Nc1ccc(F)cc1F` [Compound 145a, N-(2,4-difluorophenyl)-5-(N-((trans)-3-hydroxycyclobutyl)sulfamoyl)-2-methoxybenzamide], the pIC50 was 8.60.
Turning to `COc1ccc(S(=O)(=O)N[C@H]2C[C@@H](O)C2)cc1C(=O)Nc1ccc(F)cc1F` [Compound 145b, N-(2,4-difluorophenyl)-5-(N-((cis)-3-hydroxycyclobutyl)sulfamoyl)-2-methoxybenzamide], the pIC50 was 9.00.
Next, `COc1ccc(S(=O)(=O)N[C@H]2C[C@H](O)C2)cc1C(=O)Nc1cc(F)ccc1Cl` [Compound 146a, N-(2-chloro-5-fluorophenyl)-5-(N-((trans)-3-hydroxycyclobutyl)sulfamoyl)-2-methoxybenzamide]: 9.10; `COc1ccc(S(=O)(=O)N[C@H]2C[C@@H](O)C2)cc1C(=O)Nc1cc(F)ccc1Cl` [Compound 146b, N-(2-chloro-5-fluorophenyl)-5-(N-((cis)-3-hydroxycyclobutyl)sulfamoyl)-2-methoxybenzamide]: 9.00.
For `COCCOC[C@H](C)NS(=O)(=O)c1ccc(OC)c(C(=O)Nc2ccc(F)cc2F)c1` [Compound 147a, (S)—N-(2,4-Difluorophenyl)-2-methoxy-5-(N-(1-(2-methoxyethoxy)propan-2-yl)sulfamoyl)benzamide], the pIC50 is 8.47.
Regarding `COCCOC[C@@H](C)NS(=O)(=O)c1ccc(OC)c(C(=O)Nc2ccc(F)cc2F)c1` [Compound 147b, (R)—N-(2,4-Difluorophenyl)-2-methoxy-5-(N-(1-(2-methoxyethoxy)propan-2-yl)sulfamoyl)benzamide], the pIC50 was 8.68.
The result for `COc1ccc(S(N)(=O)=O)cc1C(=O)Nc1ccc(F)cc1F` [Compound 148, N-(2,4-Difluorophenyl)-2-methoxy-5-sulfamoylbenzamide] reads 6.79.
Next, `COc1ccc(S(=O)(=O)N[C@H]2CCOC2)cc1C(=O)Nc1ccccc1C(F)(F)F` [Compound 149, (S)-2-Methoxy-5-(N-(tetrahydrofuran-3-yl)sulfamoyl)-N-(2-(trifluoromethyl)phenyl)benzamide]: 8.08; `COc1ccc(S(=O)(=O)N[C@H]2CCOC2)cc1C(=O)Nc1ccccc1OC(F)(F)F` [Compound 150, (S)-2-Methoxy-5-(N-(tetrahydrofuran-3-yl)sulfamoyl)-N-(2-(trifluoromethoxy)phenyl)benzamide]: 8.00.
Consider `COc1ccc(S(=O)(=O)N[C@H]2CCOC2)cc1C(=O)Nc1ccccc1C1CC1` [Compound 151, (S)—N-(2-Cyclopropylphenyl)-2-methoxy-5-(N-(tetrahydrofuran-3-yl)sulfamoyl) benzamide], for which the pIC50 was 7.41.
The result for `COc1ccc(S(=O)(=O)N[C@H]2C[C@H](O)C2)cc1C(=O)Nc1ccccc1Cl` [Compound 154] reads 9.22; that for `COc1ccc(S(=O)(=O)N[C@H]2C[C@@H](O)C2)cc1C(=O)Nc1ccccc1Cl` [Compound 155, N-(2-Chlorophenyl)-5-(N-((cis)-3-hydroxycyclobutyl)sulfamoyl)-2-methoxy benzamide], 9.70; that for `COc1ccc(S(=O)(=O)N[C@H]2C[C@H](O)C2)cc1C(=O)Nc1ccc(F)cn1` [Compound 156], 6.80.
Take `COc1ccc(S(=O)(=O)N[C@H]2C[C@@H](O)C2)cc1C(=O)Nc1ccc(F)cn1` [Compound 157, N-(5-Fluoropyridin-2-yl)-5-(N-((cis)-3-hydroxycyclobutyl)sulfamoyl)-2-methoxybenzamide]: the pIC50 is 7.28.
The result for `COc1ccc(S(=O)(=O)N[C@H]2CCOC2)cc1C(=O)Nc1ccc(F)cc1` [Compound 158, (S)—N-(4-Fluorophenyl)-2-methoxy-5-(N-(tetrahydrofuran-3-yl)sulfamoyl) benzamide] reads 9.77; that for `COc1ccc(S(=O)(=O)N[C@H]2CCOC2)cc1C(=O)Nc1cccc(C)c1` [Compound 159], 9.15.
For the molecule `COc1ccc(S(=O)(=O)N[C@H]2CCOC2)cc1C(=O)Nc1ccc(F)c(C(F)(F)F)c1` [Compound 160, (S)—N-(4-Fluoro-3-(trifluoromethyl)phenyl)-2-methoxy-5-(N-(tetrahydrofuran-3-yl)sulfamoyl)benzamide], the pIC50 is 8.34.
Regarding `COc1ccc(S(=O)(=O)N[C@H]2CCOC2)cc1C(=O)Nc1cc(C)c(F)cn1` [Compound 161, (S)—N-(5-Fluoro-4-methylpyridin-2-yl)-2-methoxy-5-(N-(tetrahydrofuran-3-yl)sulfamoyl)benzamide], the pIC50 is 7.10.
The result for `COc1ccc(S(=O)(=O)N[C@H]2CCOC2)cc1C(=O)Nc1ccc(F)c(C2CC2)n1` [Compound 162, (S)—N-(6-Cyclopropyl-5-fluoropyridin-2-yl)-2-methoxy-5-(N-(tetrahydrofuran-3-yl)sulfamoyl)benzamide] reads 9.30; that for `COc1ccc(S(=O)(=O)N[C@H]2CCOC2)cc1C(=O)Nc1ccccc1C` [Compound 163, (S)-2-Methoxy-5-(N-(tetrahydrofuran-3-yl)sulfamoyl)-N-(o-tolyl)benzamide], 9.05; that for `COc1ccc(S(=O)(=O)N[C@H]2CCOC2)cc1C(=O)Nc1ccccc1C#N` [Compound 164], 8.96.
